{"source": "patent US20100174066A1", "about": "“PROCESS FOR PREPARING CRYSTALLINE FORM I OF OLANZAPINE” (priority 2005, published 2010)", "experiment": "Heat sensitivity of olanzapine Form I wet crystals dried in an air tray drier; Form II content quantified by XRPD", "assay_type": "physicochemical", "settings": "8 hours, LOQ about 0.5% by weight", "description": "Olanzapine Form I wet crystals obtained by following the process similar to that given in Example 1 were taken and dried at different temperatures in an air tray drier for 8 hours to check the impact on the crystalline purity of Form I obtained. The results are tabulated below in Table 1:\n497.5 mg of olanzapine Form I and 2.5 mg of olanzapine Form II (weight ratio of olanzapine Form Ito Form II of 99.5:0.5) were weighed and mixed with 50.0 mg of lithium fluoride. The mixture was mixed and ground three times using a mortar and pestle made of agate to get a homogeneous fine powder. A maximum quantity of the finely ground sample was packed in a sample holder and this was used as the standard for powder X-ray diffraction analysis.\n500 mg of olanzapine Form I test sample was weighed and mixed with 50 mg of lithium fluoride. The mixture was mixed and ground three times using a mortar and pestle made of agate to get a homogeneous fine powder. A maximum quantity of the finely ground sample was packed in a sample holder and this was used as the test sample for the analysis.\nThe standard and the test sample were analyzed and the intensity at 8.60° (2θ) in the diffractogram of the test sample was compared with respect to that of the 0.5% standard. If the test sample intensity at 8.60° (2θ) is more than that of the 0.5% standard, then the presence of Form II in Form I is more than 0.5%. If the test sample intensity at 8.60° (2θ) is less than that of the 0.5% standard, then the presence of Form II in Form I is less than 0.5%.", "data": [{"compound": "Cc1cc2c(s1)Nc1ccccc1N=C2N1CCN(C)CC1", "note": "[Olanzapine Form I, 2-methyl-4-(4-methyl-1-piperazinyl)-10H-thieno[2,3-b][1,5]benzodiazepine]", "values": [{"measurement": "Form II content (%)", "setting": "drying temperature 60 °C", "value": "Less than 0.5%"}, {"measurement": "Form II content (%)", "setting": "drying temperature 75-80 °C", "value": "Less than 0.5%"}, {"measurement": "Form II content (%)", "setting": "drying temperature 100 °C", "value": "Less than 0.5%"}, {"measurement": "Form II content (%)", "setting": "drying temperature 125 °C", "value": "More than 0.5%"}, {"measurement": "Form II content (%)", "setting": "drying temperature 150 °C", "value": "More than 0.5%"}, {"measurement": "Form II content (%)", "setting": "drying temperature 180 °C", "value": "More than 0.5%"}]}]}
